{"source": "patent US6737383B1", "about": "“Herbicidal oxadiazolidines” (priority 1999, dated 2004)", "key": {"cocklebur": {"tested_on": "cocklebur", "assay": "Test B pre/postemergence cocklebur", "type": "in vivo, Xanthium strumarium", "method_in_brief": "(§1)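 Test chemicals in a non-phytotoxic solvent mixture with surfactant were sprayed preemergence onto planted seeds and postemergence onto plants 2 to 18 cm tall (1- to 4-leaf stage). After twelve to sixteen days in a greenhouse, injury was visually rated against untreated controls from 0 (no effect) to 10 (complete control).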"}, "purple nutsedge": {"tested_on": "purple nutsedge", "assay": "Test B pre/postemergence purple nutsedge", "type": "in vivo, Cyperus rotundus", "method_in_brief": "as §1"}, "pigweed": {"tested_on": "pigweed", "assay": "Test B pre/postemergence pigweed", "type": "in vivo, Amaranthus retroflexus", "method_in_brief": "as §1"}, "rape": {"tested_on": "rape", "assay": "Test B pre/postemergence rape", "type": "in vivo, Brassica napus", "method_in_brief": "as §1"}, "wheat": {"tested_on": "wheat", "assay": "Test B pre/postemergence wheat", "type": "in vivo, Triticum aestivum", "method_in_brief": "as §1"}, "duck salad": {"tested_on": "duck salad", "assay": "Test B flood test duck salad", "type": "in vivo, Heteranthera limosa", "settings": "Rate 125 g/ha; Postemergence section (flood test species); scale 0 to 10, 0 no effect, 10 complete control", "method_in_brief": "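Each value is a visual injury score relative to controls, with 10 meaning complete control and 0 no effect. Evaluation took place twelve to sixteen days after the 2-leaf-stage plants were treated and kept in the greenhouse.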"}, "giant foxtail": {"tested_on": "giant foxtail", "assay": "Test B pre/postemergence giant foxtail", "type": "in vivo, Setaria faberii", "method_in_brief": "as §1"}, "blackgrass": {"tested_on": "blackgrass", "assay": "Test B pre/postemergence blackgrass", "type": "in vivo, Alopecurus myosuroides", "method_in_brief": "as §1"}, "corn": {"tested_on": "corn", "assay": "Test B pre/postemergence corn", "type": "in vivo, Zea mays", "method_in_brief": "as §1"}, "surinam grass": {"tested_on": "surinam grass", "assay": "Test B pre/postemergence surinam grass", "type": "in vivo, Brachiaria decumbens", "method_in_brief": "as §1"}, "soybean": {"tested_on": "soybean", "assay": "Test B pre/postemergence soybean", "type": "in vivo, Glycine max", "method_in_brief": "as §1"}, "crabgrass": {"tested_on": "crabgrass", "assay": "Test B pre/postemergence crabgrass", "type": "in vivo, Digitaria sanguinalis", "method_in_brief": "as §1"}, "sugar beet": {"tested_on": "sugar beet", "assay": "Test B pre/postemergence sugar beet", "type": "in vivo, Beta vulgaris", "method_in_brief": "as §1"}, "[1]": {"settings": "Postemergence, Rate 62 g/ha, scale 0 to 10, 0 is no effect, 10 is complete control"}, "[2]": {"settings": "Postemergence, Rate 250 g/ha, scale 0 to 10, 0 no effect, 10 complete control"}, "[3]": {"settings": "Preemergence, Rate 62 g/ha, scale 0 to 10, 0 is no effect, 10 is complete control"}, "[4]": {"settings": "Preemergence, Rate 125 g/ha, scale 0 to 10 (0 no effect, 10 complete control)"}, "[5]": {"settings": "Preemergence, Rate 250 g/ha, scale of 0 to 10 where 0 is no effect and 10 is complete control"}, "[6]": {"settings": "Preemergence, Rate 500 g/ha, scale 0 (no effect) to 10 (complete control)"}, "[7]": {"settings": "Rate 125 g/ha, Postemergence, scale 0 to 10, 0 no effect, 10 complete control"}, "[8]": {"settings": "Rate 500 g/ha, Postemergence, 0 to 10 scale (0 no effect, 10 complete control)"}}, "data": [{"smiles": "Cc1ccc(N(C(=O)n2oc(=O)n(-c3ccccc3C)c2=O)C(C)C)cc1", "note": "[Compound 40]", "values": [{"measurement": "Cocklebur plant response rating", "setting": "cocklebur; [1]", "value": 0}, {"measurement": "Cocklebur plant response rating", "setting": "cocklebur; [2]", "value": 0}, {"measurement": "Plant response rating, Cocklebur", "setting": "cocklebur; [3]", "value": 0}, {"measurement": "Plant response rating, Cocklebur", "setting": "cocklebur; [4]", "value": 0}, {"measurement": "Plant response rating, Cocklebur", "setting": "cocklebur; [5]", "value": 0}, {"measurement": "Cocklebur plant response rating", "setting": "cocklebur; [6]", "value": 0}, {"measurement": "Cocklebur plant response rating", "setting": "cocklebur; [7]", "value": 0}, {"measurement": "Cocklebur plant response rating", "setting": "cocklebur; [8]", "value": 0}, {"measurement": "Nutsedge plant response rating", "setting": "purple nutsedge; [1]", "value": 0}, {"measurement": "Nutsedge plant response rating", "setting": "purple nutsedge; [2]", "value": 0}, {"measurement": "Plant response rating, Nutsedge", "setting": "purple nutsedge; [3]", "value": 0}, {"measurement": "Plant response rating, Nutsedge", "setting": "purple nutsedge; [4]", "value": 0}, {"measurement": "Plant response rating, Nutsedge", "setting": "purple nutsedge; [5]", "value": 0}, {"measurement": "Nutsedge plant response rating", "setting": "purple nutsedge; [6]", "value": 0}, {"measurement": "Nutsedge plant response rating", "setting": "purple nutsedge; [7]", "value": 0}, {"measurement": "Nutsedge plant response rating", "setting": "purple nutsedge; [8]", "value": 0}, {"measurement": "Redroot pigweed plant response rating", "setting": "pigweed; [1]", "value": 0}, {"measurement": "Redroot pigweed plant response rating", "setting": "pigweed; [2]", "value": 2}, {"measurement": "Plant response rating, Redroot pigweed", "setting": "pigweed; [3]", "value": 0}, {"measurement": "Plant response rating, Redroot pigweed", "setting": "pigweed; [4]", "value": 1}, {"measurement": "Plant response rating, Redroot pigweed", "setting": "pigweed; [5]", "value": 4}, {"measurement": "Redroot pigweed plant response rating", "setting": "pigweed; [6]", "value": 6}, {"measurement": "Redroot pigweed plant response rating", "setting": "pigweed; [7]", "value": 1}, {"measurement": "Rape plant response rating", "setting": "rape; [1]", "value": 0}, {"measurement": "Rape plant response rating", "setting": "rape; [2]", "value": 0}, {"measurement": "Plant response rating, Rape", "setting": "rape; [3]", "value": 0}, {"measurement": "Plant response rating, Rape", "setting": "rape; [4]", "value": 0}, {"measurement": "Plant response rating, Rape", "setting": "rape; [5]", "value": 0}, {"measurement": "Rape plant response rating", "setting": "rape; [6]", "value": 0}, {"measurement": "Rape plant response rating", "setting": "rape; [7]", "value": 0}, {"measurement": "Rape plant response rating", "setting": "rape; [8]", "value": 0}, {"measurement": "Wheat plant response rating", "setting": "wheat; [1]", "value": 0}, {"measurement": "Wheat plant response rating", "setting": "wheat; [2]", "value": 0}, {"measurement": "Plant response rating, Wheat", "setting": "wheat; [3]", "value": 0}, {"measurement": "Plant response rating, Wheat", "setting": "wheat; [4]", "value": 0}, {"measurement": "Plant response rating, Wheat", "setting": "wheat; [5]", "value": 0}, {"measurement": "Wheat plant response rating", "setting": "wheat; [6]", "value": 0}, {"measurement": "Wheat plant response rating", "setting": "wheat; [7]", "value": 0}, {"measurement": "Ducksalad plant response rating", "setting": "duck salad", "value": 0}, {"measurement": "Giant foxtail plant response rating", "setting": "giant foxtail; [1]", "value": 0}, {"measurement": "Giant foxtail plant response rating", "setting": "giant foxtail; [2]", "value": 1}, {"measurement": "Plant response rating, Giant foxtail", "setting": "giant foxtail; [3]", "value": 9}, {"measurement": "Plant response rating, Giant foxtail", "setting": "giant foxtail; [4]", "value": 9}, {"measurement": "Plant response rating, Giant foxtail", "setting": "giant foxtail; [5]", "value": 10}, {"measurement": "Giant foxtail plant response rating", "setting": "giant foxtail; [6]", "value": 10}, {"measurement": "Giant foxtail plant response rating", "setting": "giant foxtail; [7]", "value": 0}, {"measurement": "Giant foxtail plant response rating", "setting": "giant foxtail; [8]", "value": 3}, {"measurement": "Blackgrass plant response rating", "setting": "blackgrass; [1]", "value": 0}, {"measurement": "Blackgrass plant response rating", "setting": "blackgrass; [2]", "value": 4}, {"measurement": "Plant response rating, Blackgrass", "setting": "blackgrass; [3]", "value": 0}, {"measurement": "Plant response rating, Blackgrass", "setting": "blackgrass; [4]", "value": 0}, {"measurement": "Plant response rating, Blackgrass", "setting": "blackgrass; [5]", "value": 1}, {"measurement": "Blackgrass plant response rating", "setting": "blackgrass; [6]", "value": 6}, {"measurement": "Blackgrass plant response rating", "setting": "blackgrass; [7]", "value": 0}, {"measurement": "Blackgrass plant response rating", "setting": "blackgrass; [8]", "value": 7}, {"measurement": "Corn plant response rating", "setting": "corn; [1]", "value": 0}, {"measurement": "Corn plant response rating", "setting": "corn; [2]", "value": 0}, {"measurement": "Plant response rating, Corn", "setting": "corn; [3]", "value": 0}, {"measurement": "Plant response rating, Corn", "setting": "corn; [4]", "value": 0}, {"measurement": "Plant response rating, Corn", "setting": "corn; [5]", "value": 0}, {"measurement": "Corn plant response rating", "setting": "corn; [6]", "value": 0}, {"measurement": "Corn plant response rating", "setting": "corn; [7]", "value": 0}, {"measurement": "Corn plant response rating", "setting": "corn; [8]", "value": 0}, {"measurement": "B. signalgrass plant response rating", "setting": "surinam grass; [1]", "value": 0}, {"measurement": "B. signalgrass plant response rating", "setting": "surinam grass; [2]", "value": 0}, {"measurement": "Plant response rating, B. signalgrass", "setting": "surinam grass; [3]", "value": 0}, {"measurement": "Plant response rating, B. signalgrass", "setting": "surinam grass; [4]", "value": 0}, {"measurement": "Plant response rating, B. signalgrass", "setting": "surinam grass; [5]", "value": 5}, {"measurement": "B. signalgrass plant response rating", "setting": "surinam grass; [6]", "value": 7}, {"measurement": "B. signalgrass plant response rating", "setting": "surinam grass; [7]", "value": 0}, {"measurement": "B. signalgrass plant response rating", "setting": "surinam grass; [8]", "value": 0}, {"measurement": "Soybean plant response rating", "setting": "soybean; [1]", "value": 3}, {"measurement": "Soybean plant response rating", "setting": "soybean; [2]", "value": 4}, {"measurement": "Plant response rating, Soybean", "setting": "soybean; [3]", "value": 0}, {"measurement": "Plant response rating, Soybean", "setting": "soybean; [4]", "value": 0}, {"measurement": "Plant response rating, Soybean", "setting": "soybean; [5]", "value": 0}, {"measurement": "Soybean plant response rating", "setting": "soybean; [6]", "value": 0}, {"measurement": "Soybean plant response rating", "setting": "soybean; [7]", "value": 3}, {"measurement": "Crabgrass plant response rating", "setting": "crabgrass; [1]", "value": 0}, {"measurement": "Crabgrass plant response rating", "setting": "crabgrass; [2]", "value": 6}, {"measurement": "Plant response rating, Crabgrass", "setting": "crabgrass; [3]", "value": 2}, {"measurement": "Plant response rating, Crabgrass", "setting": "crabgrass; [4]", "value": 4}, {"measurement": "Plant response rating, Crabgrass", "setting": "crabgrass; [5]", "value": 7}, {"measurement": "Crabgrass plant response rating", "setting": "crabgrass; [6]", "value": 10}, {"measurement": "Crabgrass plant response rating", "setting": "crabgrass; [7]", "value": 1}, {"measurement": "Crabgrass plant response rating", "setting": "crabgrass; [8]", "value": 7}, {"measurement": "Sugarbeets plant response rating", "setting": "sugar beet; [1]", "value": 0}, {"measurement": "Sugarbeets plant response rating", "setting": "sugar beet; [2]", "value": 2}, {"measurement": "Plant response rating, Sugarbeets", "setting": "sugar beet; [3]", "value": 0}, {"measurement": "Plant response rating, Sugarbeets", "setting": "sugar beet; [4]", "value": 0}, {"measurement": "Plant response rating, Sugarbeets", "setting": "sugar beet; [5]", "value": 0}, {"measurement": "Sugarbeets plant response rating", "setting": "sugar beet; [6]", "value": 6}, {"measurement": "Sugarbeets plant response rating", "setting": "sugar beet; [7]", "value": 0}]}]}
